pIC50: −log10 of the molar value. Where two headings read alike, the source gives them in different places.
What was measured:
E. multilocularis PC [1] = test: Cell viability assay (Cell Titer Glo 2.0) on E. multilocularis primary cell cultures (PC), initial kinase inhibitor screen; assay type: cell-based, Echinococcus multilocularis; details: for inhibition at 10 µM: Echinococcus multilocularis, read-out: growth inhibition of Echinococcus PC
E. multilocularis MV = test: Mature metacestode vesicle (MV) assay, structural integrity by microscopy; assay type: cell-based, Echinococcus multilocularis; details: for structural vesicle damage of MV (screen of 20 in silico compounds): 3 and 10 μM
Protocol: In mature MV assays, 10 individual MV each were cultured in 2 ml of conditioned medium (100% A6 medium) in the presence of inhibitors in 12 well plates under axenic conditions for 28 d as described in [39]. […] Structural integrity of MV was assessed using an optical microscope (Nikon eclipse Ts2-FL). Experimental set-up and execution of inhibitor studies and structural integrity assessment was performed by independent experimenters. Criteria for intact or damaged vesicles were essentially as previously described. All experiments were performed using 3 biological replicates. Percentages of structurally intact vesicles were statistically analyzed with one-way ANOVA with Dunnet’s multiple comparison tests in Graphpad prism 9.3.1(Graphpad software).

HepG2 cells = test: Mammalian cell toxicity, Cell Titer Glo 2.0 viability; assay type: cell-based, human; details: for pIC50: read-out: IC50 against HepG2 cells
Protocol: (§1) The toxicity of inhibitors against mammalian cells was evaluated by treatment of the commonly used cell lines HEK293T [42] and HepG2 [43], which were cultivated and passaged as described in [43, 44]. […] 24 h after seeding, 50 μl of DMEM+GlutaMAX-I including FBS and inhibitors were added. Final concentrations of inhibitors were adjusted to 0–30 μM as indicated, DMSO alone was used as a control. Plates were incubated for 3 d under aerobic conditions and cell viability was measured using the Cell Titer Glo 2.0 system (Promega) according to the manufacturer’s instructions. Luminescence was measured by a Spectramax iD3 Multi-mode Microplate reader (Molecular Devices). Three independent experiments with three technical replicates were carried out for both cell lines. Luminescence units were normalized to the DMSO control of each independent experiment and expressed as percentage of luminescence unit. One-Way-ANOVA test followed by Tukey’s multiple comparisons test was used in GraphPad Prism version 9.3.1 (Graphpad software) for statistical analysis. Based on the cell viability data, dose-response curves were drawn and IC50 (best fit value) were calculated using GraphPad Prism version 9.3.1 (Graphpad software).

HEK293T cells = test: as above; assay type: cell-based, human; details: for pIC50: read-out: IC50 against HEK293T cells
Protocol: as §1

E. multilocularis PC [2] = test: Vesicle formation assay (MV formation from PC); assay type: cell-based, Echinococcus multilocularis
Protocol: In vesicle formation assays, PC were isolated as described above and 100 U of isolated PC (~1.5×10^4 cells/well) were seeded in 96 well plates with 200 μl of conditioned medium (50% A6 medium + 50% B4 medium) for 21 d under nitrogen atmosphere. The number of newly formed vesicles was counted using an optical microscope (Nikon eclipse Ts2-FL) essentially as previously described. Kruskal-Wallis test followed by Dunn’s multiple comparisons test was used in GraphPad Prism version 9.3.1(Graphpad software) to analyze the difference of vesicle numbers in control and treatment groups. In this analysis, all concentrations were compared with the negative control DMSO. Experiments with SGI-1776 and CX-6258 were performed in three biological and technical replicates. Experiments with SGI-1776 and Z196138710 were performed in three technical replicates.

haspin = details: cited from earlier work
human Pim-2 = details: cited from earlier work
human Pim-1 = details: cited from earlier work
human Pim-3 = details: cited from earlier work
FLT3 = details: cited from earlier work
E. multilocularis = test system: E. multilocularis; set-up: method as in PMID 26389799; details: cited from earlier work
Echinococcus = details: ref PMID:9593125; cited from earlier work
[3] = set-up: method as in PMID 30370255; details: non-Hodgkin lymphoma and prostate cancer; cited from earlier work
[4] = cited from earlier work
[5] = test system: a broad variety of other cell types, including chronic lymphocytic leukemia cells; set-up: method as in PMID 22052829, PMID 19734450; details: read-out: in vitro IC50 against a broad variety of other cell types; cited from earlier work
solid tumour xenografts = test system: solid tumour xenografts; set-up: method as in PMID 22052829, PMID 25589932; details: mice, plasma concentrations around 3 μM free compound; cited from earlier work
[6] = test system: human Ether-á-go-go-related (hERG) cardiac ion channel; details: cited from earlier work
[7] = response to reviewers, ref literature, not numbered at the place

Cc1nc(Nc2ncc(C(=O)Nc3c(C)cccc3Cl)s2)cc(N2CCN(CCO)CC2)n1 [Dasatinib]
effect on parasite PC proliferation (E. multilocularis PC [1]; 10 μM, 3 d and 7 d): stimulated parasite cell proliferation

CCC1CN(Cc2nc3cc(OC)c(OC)cc3c(=O)[nH]2)CCO1 (stereo not drawn) [Z354576500]
structural vesicle damage of MV (screen of 20 in silico compounds) (E. multilocularis MV; 28 d): highly effective in inducing structural vesicle damage

Cc1noc(C)c1COc1cccc(C(=O)N2CCC(C(N)=O)CC2)c1 [Z30898879]
structural vesicle damage of MV (screen of 20 in silico compounds) (E. multilocularis MV; 28 d): highly effective in inducing structural vesicle damage

CN(C)C(=O)CN1CCN(Cc2nc3scc(-c4ccccc4Cl)c3c(=O)[nH]2)CC1 [Z65225039]
structural vesicle damage of MV (screen of 20 in silico compounds) (E. multilocularis MV; 28 d): highly effective in inducing structural vesicle damage

COc1cc(CNc2ncnc3ccsc23)ccc1OC(F)F [Z196138710, N-(4-(difluoromethoxy)-3-methoxybenzyl)-thieno-[3,2-d]-pyrimidin-4-amine]
inhibition of HepG2 cells (HepG2 cells; 30 and 10 μM, 3 d): 40–60%
pIC50 (HepG2 cells; Homo sapiens, HepG2, 72 h, 3 d, cell viability): 4.80
inhibition of HEK293T cells (HEK293T cells; 30 and 10 μM, 3 d): 40–60%
pIC50 (HEK293T cells; Homo sapiens, HEK-293T, 72 h, 3 d, cell viability): 4.96
concentration effective against the parasite, mature MV (E. multilocularis MV): 10 µM
structural disintegration of MV (E. multilocularis MV; 10 μM, 28 d): 100%
structural vesicle damage of MV (screen of 20 in silico compounds) (E. multilocularis MV; 28 d): highly effective in inducing structural vesicle damage
concentration effective against the parasite, stem cell cultures (E. multilocularis PC [2]): 3 µM
MV formation from stem cells (PC) (E. multilocularis PC [2]; 10 μM, 21 d): completely prevented MV formation
MV development from primary cells, comparison with SGI-1776 (E. multilocularis PC [2]; different concentrations, 21 d): effects similar to those of SGI-1776

CN1CCCN(C(=O)c2cccc(-c3ccc(/C=C4/C(=O)Nc5ccc(Cl)cc54)o3)c2)CC1 [CX-6258]
activity against haspin kinase (haspin; melanoma cell lines): much higher IC50 values than against Pim-1 and Pim-3
pIC50 (human Pim-2; read-out: IC50 Pim-2): 7.60
effect on HepG2 cells (HepG2 cells; 30 and 10 μM, 3 d): fully eliminated
pIC50 (HepG2 cells; 3 d, cell viability): ~6.00
effect on HEK293T cells (HEK293T cells; 30 and 10 μM, 3 d): fully eliminated
pIC50 (HEK293T cells; 3 d, cell viability): ~6.00
pIC50 (human Pim-3; read-out: IC50 Pim-3): 7.80
pIC50 (FLT3; read-out: IC50 FLT3): 6.87
effect on structural integrity of mature MV (E. multilocularis MV; 3 μM, 28 d): did not lead to statistically significant effects
effect on structural integrity of mature MV (E. multilocularis MV; 10 μM, 28 d): drastic loss of structural integrity of all
MV formation from stem cells (PC) (E. multilocularis PC [2]; 3 μM, 21 d): drastically affected MV formation
MV formation from stem cells (PC) (E. multilocularis PC [2]; concentrations higher than 3 μM, 21 d): completely inhibited MV development

CCCSc1ccc2nc(NC(=O)OC)[nH]c2c1 [albendazole]
efficacy against the parasite in AE patients (E. multilocularis): effective against the parasite in only one third of cases

COC(=O)Nc1nc2ccc(C(=O)c3ccccc3)cc2[nH]1 [mebendazole]
efficacy against the parasite in AE patients (E. multilocularis): effective against the parasite in only one third of cases
in vitro active concentrations (Echinococcus): 1 to 10 µM

CN1CCC(CNc2ccc3ncc(-c4cccc(OC(F)(F)F)c4)n3n2)CC1 [SGI-1776]
toxicity in clinical phase I trials [3]: toxicity in cardiac electric cycle prolongation
pIC50 (haspin; read-out: IC50 against haspin): 7.47
pIC50 (human Pim-2; read-out: IC50 against human Pim-2): 6.44
effect on HepG2 cells (HepG2 cells; 30 and 10 μM, 3 d): fully eliminated
pIC50 (HepG2 cells; Homo sapiens, HepG2, 72 h): ~6.00
effect on HEK293T cells (HEK293T cells; 30 and 10 μM, 3 d): fully eliminated
pIC50 (HEK293T cells; Homo sapiens, HEK-293T, 72 h): ~6.00
inhibition at 10 µM (E. multilocularis PC [1]; 72 h): ~60%
inhibition at 10 µM (E. multilocularis PC [1]; 168 h): ~80%
pIC50 (human Pim-3; read-out: IC50 against human Pim-3): 7.16
compound bound to plasma proteins ([4]; in vivo application in mice): around 95%
well tolerated plasma concentration of free compound (not bound to plasma proteins) ([4]; mice): around 3 μM
drug bound to human plasma protein [4, 7]: about 95%
pIC50 [5]: ~5.52
pIC50 (FLT3; read-out: IC50 against FLT3): 7.36
effect on structural integrity of mature MV (E. multilocularis MV; 3 μM, 28 d): did not lead to statistically significant effects
effect on structural integrity of mature MV (E. multilocularis MV; 10 μM, 28 d): almost all
efficacy against solid tumour xenografts (solid tumour xenografts): effective against solid tumour xenografts in mice
cause of toxicity in clinical trials: hERG [6]: off-target effects
MV formation from stem cells (PC) (E. multilocularis PC [2]; 3 μM, 21 d): did not lead to statistically significant effects
MV formation from stem cells (PC) (E. multilocularis PC [2]; 10 μM, 21 d): almost completely
MV formation from stem cells (PC) (E. multilocularis PC [2]; 30 μM, 21 d): completely prevented

Source: publication PMC9560627, “Targeting Echinococcus multilocularis PIM kinase for improving anti-parasitic chemotherapy” (PLoS Neglected Tropical Diseases, 2022)
